ChEMBL document CHEMBL5325425, “Design, synthesis and biological evaluation of pyrrolopyrimidine derivatives as novel and selective positive modulator of the small conductance Ca2+-activated K+ channels” (Eur J Med Chem, 2023)
One block for each molecule: values may come before it.

Columns and labels:
[1] = molecular target: T1, Small conductance calcium-activated potassium channel protein 1 (Homo sapiens, UniProt Q92952); assay: Positive modulation of SK1 in HEK293 cells in presence of Ca2+ by patch-clamp method; assay type: cell-based
T1 sequence (Q92952 whole entry): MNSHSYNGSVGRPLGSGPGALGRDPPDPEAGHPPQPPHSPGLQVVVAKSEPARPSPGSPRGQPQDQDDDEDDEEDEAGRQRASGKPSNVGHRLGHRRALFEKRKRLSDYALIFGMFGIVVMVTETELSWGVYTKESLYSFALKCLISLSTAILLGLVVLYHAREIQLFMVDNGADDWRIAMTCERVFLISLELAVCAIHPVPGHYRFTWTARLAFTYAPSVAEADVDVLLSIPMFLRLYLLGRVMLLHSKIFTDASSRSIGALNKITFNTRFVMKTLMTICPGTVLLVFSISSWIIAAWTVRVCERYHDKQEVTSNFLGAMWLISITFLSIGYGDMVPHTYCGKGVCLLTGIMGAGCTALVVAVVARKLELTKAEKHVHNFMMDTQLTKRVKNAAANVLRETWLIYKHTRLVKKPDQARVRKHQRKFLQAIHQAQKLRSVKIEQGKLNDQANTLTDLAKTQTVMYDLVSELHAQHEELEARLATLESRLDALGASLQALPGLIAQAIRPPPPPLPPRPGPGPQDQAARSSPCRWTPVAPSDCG

[2] = molecular target: T2, Small conductance calcium-activated potassium channel protein 2 (Homo sapiens, UniProt Q9H2S1); assay: Positive modulation of SK2 in HEK293 cells in presence of Ca2+ by patch-clamp method; assay type: cell-based
T2 sequence (Q9H2S1 whole entry): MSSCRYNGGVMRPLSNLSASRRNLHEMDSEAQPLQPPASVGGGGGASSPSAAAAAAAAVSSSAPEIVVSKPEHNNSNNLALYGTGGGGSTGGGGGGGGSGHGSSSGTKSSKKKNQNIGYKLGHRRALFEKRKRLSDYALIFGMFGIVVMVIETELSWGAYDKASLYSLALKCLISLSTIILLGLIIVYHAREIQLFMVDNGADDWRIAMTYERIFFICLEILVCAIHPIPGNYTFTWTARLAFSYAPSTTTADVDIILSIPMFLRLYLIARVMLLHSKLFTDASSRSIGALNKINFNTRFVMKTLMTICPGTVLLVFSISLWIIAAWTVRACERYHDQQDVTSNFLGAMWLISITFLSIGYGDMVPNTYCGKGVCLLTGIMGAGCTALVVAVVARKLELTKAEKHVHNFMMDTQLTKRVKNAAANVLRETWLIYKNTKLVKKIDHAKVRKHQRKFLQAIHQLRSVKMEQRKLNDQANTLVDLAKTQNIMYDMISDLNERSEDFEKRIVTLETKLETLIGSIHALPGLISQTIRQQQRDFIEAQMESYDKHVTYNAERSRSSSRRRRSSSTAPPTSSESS

[3] = Activation of rat SK2 variant a transfected in human tsA201 cells coexpressing CaM/GFP in presence of Ca2+ by […]; assay type: cell-based
[4] = Apparent permeability across apical to basal side in human BMEC cells at 10 ug/ml incubated for 24 hrs by BBB assay; assay type: ADME, cell-based; details: dose 10 µg/ml
[5] = Apparent volume of distribution during terminal phase in fasted Sprague-Dawley rat at 100 mg/kg, po measured upto 12 hrs by LC-MS/MS analysis; assay type: ADME, organism-based; details: in vivo, read-out: Vz/F
[6] = Apparent oral clearance in fasted Sprague-Dawley rat at 2 mg/kg, iv measured upto 12 hrs by LC-MS/MS analysis; assay type: ADME, organism-based; details: in vivo
[7] = AUC (0 to t) in fasted Sprague-Dawley rat at 2 mg/kg, iv measured upto 12 hrs by LC-MS/MS analysis; assay type: ADME, organism-based; set-up: dose 2 mg/kg, time < 12 hrs, route iv; details: in vivo
[8] = Apparent oral clearance in fasted Sprague-Dawley rat at 100 mg/kg, po measured upto 12 hrs by LC-MS/MS analysis; assay type: ADME, organism-based; details: in vivo
[9] = MRT in fasted Sprague-Dawley rat at 2 mg/kg, iv measured upto 12 hrs by LC-MS/MS analysis; assay type: ADME, organism-based; details: in vivo
[10] = AUC (0 to t) in fasted Sprague-Dawley rat at 100 mg/kg, po measured upto 12 hrs by LC-MS/MS analysis; assay type: ADME, organism-based; set-up: time < 12 hrs, dose 100 mg/kg, route po; details: in vivo
[11] = MRT in fasted Sprague-Dawley rat at 100 mg/kg, po measured upto 12 hrs by LC-MS/MS analysis; assay type: ADME, organism-based; details: in vivo
[12] = AUC (0 to infinity) in fasted Sprague-Dawley rat at 2 mg/kg, iv measured upto 12 hrs by LC-MS/MS analysis; assay type: ADME, organism-based; set-up: time < 12 hrs, dose 2 mg/kg, route iv; details: in vivo
[13] = Cmax in fasted Sprague-Dawley rat at 2 mg/kg, iv measured upto 12 hrs by LC-MS/MS analysis; assay type: ADME, organism-based; set-up: dose 2 mg/kg, time < 12 hrs, route iv; details: in vivo
[14] = Apparent volume of distribution during terminal phase in fasted Sprague-Dawley rat at 2 mg/kg, iv measured upto 12 hrs by LC-MS/MS analysis; assay type: ADME, organism-based; details: in vivo
[15] = Oral bioavailability in fasted Sprague-Dawley rat at 100 mg/kg measured upto 12 hrs by LC-MS/MS analysis; assay type: ADME, organism-based; details: in vivo
[16] = Cmax in fasted Sprague-Dawley rat at 100 mg/kg, po measured upto 12 hrs by LC-MS/MS analysis; assay type: ADME, organism-based; set-up: time < 12 hrs, dose 100 mg/kg, route po; details: in vivo
[17] = Half life in fasted Sprague-Dawley rat at 2 mg/kg, iv measured upto 12 hrs by LC-MS/MS analysis; assay type: ADME, organism-based; details: in vivo
[18] = Tmax in fasted Sprague-Dawley rat at 100 mg/kg, po measured upto 12 hrs by LC-MS/MS analysis; assay type: ADME, organism-based; details: in vivo
[19] = Half life in fasted Sprague-Dawley rat at 100 mg/kg, po measured upto 12 hrs by LC-MS/MS analysis; assay type: ADME, organism-based; details: in vivo
HUVEC = assay: Cytotoxicity against HUVEC cells assessed as cell viability at 0.1 to 10000 nM incubated for 24 hrs by CCK8 assay; assay type: toxicity, cell-based; details: human, 10 µM, dose 0.1-10000 nM
[20] = molecular target: T2, Small conductance calcium-activated potassium channel protein 2; assay: Positive modulation of SK2 (unknown origin)
[21] = molecular target: Small conductance calcium-activated potassium channel protein 3 (Homo sapiens, UniProt Q9UGI6); assay: Positive modulation of SK3 (unknown origin)
Sequence of Small conductance calcium-activated potassium channel protein 3 (Q9UGI6 whole entry): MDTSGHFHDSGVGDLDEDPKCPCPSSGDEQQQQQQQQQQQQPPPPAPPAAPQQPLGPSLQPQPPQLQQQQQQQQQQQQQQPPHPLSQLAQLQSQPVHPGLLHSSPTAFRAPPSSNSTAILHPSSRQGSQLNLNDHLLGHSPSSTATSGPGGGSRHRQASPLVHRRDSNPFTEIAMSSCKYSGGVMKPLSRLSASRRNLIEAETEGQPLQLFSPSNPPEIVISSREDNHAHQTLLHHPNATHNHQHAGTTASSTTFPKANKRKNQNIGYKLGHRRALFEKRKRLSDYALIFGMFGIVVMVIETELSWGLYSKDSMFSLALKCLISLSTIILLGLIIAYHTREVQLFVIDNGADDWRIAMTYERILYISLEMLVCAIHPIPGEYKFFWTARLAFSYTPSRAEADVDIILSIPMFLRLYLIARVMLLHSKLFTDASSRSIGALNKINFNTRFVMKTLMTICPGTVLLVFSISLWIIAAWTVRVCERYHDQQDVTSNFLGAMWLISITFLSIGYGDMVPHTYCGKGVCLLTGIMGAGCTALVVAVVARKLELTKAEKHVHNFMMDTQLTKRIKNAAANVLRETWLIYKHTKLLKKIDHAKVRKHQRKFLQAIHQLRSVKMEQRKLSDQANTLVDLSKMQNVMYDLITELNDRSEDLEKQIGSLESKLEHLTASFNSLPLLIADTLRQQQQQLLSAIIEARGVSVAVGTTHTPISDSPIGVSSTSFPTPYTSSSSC

[22] = molecular target: T1, Small conductance calcium-activated potassium channel protein 1; assay: Positive modulation of SK1 (unknown origin)
[23] = AUC (0 to infinity) in fasted Sprague-Dawley rat at 100 mg/kg, po measured upto 12 hrs by LC-MS/MS analysis; assay type: ADME, organism-based; set-up: time < 12 hrs, dose 100 mg/kg, route po; details: in vivo

Compound: O=C1Nc2c(ccc(Cl)c2Cl)C1=NO
EC50 [1]: 0.6 µM | EC50 [2]: 0.8 µM

Compound: Cc1cc(C)n(-c2nc(Nc3ccc(C(C)C)cc3)c3ccsc3n2)n1
EC50 [3]: > 100 µM

Compound: Cc1cc(C)n(-c2nc(Nc3ccc(Cl)cc3)c3ncn(C)c3n2)n1
EC50 [1]: > 100 µM | EC50 [2]: 1.8 µM | Papp A→B at 24 h, 10 ug/ml [4]: 2.94 ×10⁻⁶ cm/s

Compound: CCc1ccc(Nc2nc(-n3nc(C)cc3C)nc3c2ccn3C)cc1
EC50 [3]: > 100 µM

Compound: CCc1ccc(Nc2nc(-n3nc(C)cc3C)nc3sccc23)cc1
EC50 [3]: > 100 µM

Compound: CCC(CC)Nc1nc(-n2nc(C)cc2C)nc2sccc12
EC50 [3]: > 100 µM

Compound: COc1ccc(Nc2nc(-n3nc(C)cc3C)nc3sccc23)cc1
EC50 [3]: > 100 µM

Compound: COc1ccc(Nc2nc(-n3nc(C)cc3C)nc3c2ccn3C)cc1
EC50 [3]: 13.7 µM

Compound: Cc1cc(C)n(-c2nc(Nc3ccccc3)c3c(ccn3C)n2)n1
EC50 [3]: 8.43 µM

Compound: Cc1cc(C)n(-c2nc(Nc3ccc(Cl)c(C(F)(F)F)c3)c3c(ccn3C)n2)n1
EC50 [3]: 29.8 µM

Compound: Cc1cc(C)n(-c2nc(Nc3ccc(Cl)cc3)c3ccsc3n2)n1
EC50 [3]: > 100 µM

Compound: Cc1cc(C)n(-c2nc(Nc3ccc(Br)cc3)c3ccsc3n2)n1
EC50 [3]: > 100 µM

Compound: Cc1cc(C)n(-c2nc(Nc3cccc(C(F)(F)F)c3)c3c(ccn3C)n2)n1
EC50 [3]: 20.4 µM

Compound: Cc1ccn(-c2nc(Nc3ccc(F)cc3)c3ccn(C)c3n2)n1
Vd/F [5]: 86.7 L/kg | CLz/F [6]: 31.72 mL/min/kg | AUC(0-t) at 12 h [7]: 1110 ng·h/mL | CLz/F ([8]; po, 100 mg/kg, 12 h): 695.27 mL/min/kg | MRT [9]: 1.51 h | AUCt ([10]; 12 h): 2427.989 ng·h/mL | MRT [11]: 3.37 h | Papp A→B at 24 h, 10 ug/ml [4]: 3.07 ×10⁻⁶ cm/s | AUC ([12]; 12 h): 1168.28 ng·h/mL | Cmax [13]: 1680 ng/mL | Vz/F [14]: 6.111 L/kg | F ([15]; po, 100 mg/kg, 12 h): 23.6% | Cmax [16]: 488 ng/mL | half-life [17]: 2.63 h | Tmax [18]: 2.67 h | half-life [19]: 1.43 h | Activity (HUVEC): Non-Toxic

Compound: Cc1cc(NC2CCCCC2)nc(-n2nc(C)cc2C)n1
EC50 [20]: 14 µM | EC50 [21]: 5.6 µM | EC50 [22]: > 100 µM

Compound: Cc1ccc(Nc2nc(-n3nc(C)cc3C)nc3sccc23)cc1
EC50 [3]: > 100 µM

Compound: Cc1cc(C)n(-c2nc(NC3CCCCC3)c3ccsc3n2)n1
EC50 [3]: > 100 µM

Compound: Cc1cc(C)n(-c2nc(N(C)Cc3ccccc3)c3ccn(C)c3n2)n1
EC50 [3]: 19.1 µM

Compound: Cc1cc(C)n(-c2nc(Nc3ccc(I)cc3)c3ccsc3n2)n1
EC50 [3]: > 100 µM

More lines, in order of falling EC50 [3], values ahead:

EC50 [3]: 8.34 µM
Compound: Cc1cc(C)n(-c2nc(Nc3ccccc3)c3ccsc3n2)n1

EC50 [3]: 7.71 µM
Compound: Cc1cccc(Nc2nc(-n3nc(C)cc3C)nc3ccn(C)c23)c1

EC50 [3]: 6.78 µM
Compound: Cc1cc(C)n(-c2nc(Nc3ccc(F)cc3)c3ccsc3n2)n1

EC50 [3]: 6.54 µM
Compound: Cc1cccc(Nc2nc(-n3nc(C)cc3C)nc3c2ccn3C)c1

EC50 [3]: 6.52 µM
Compound: Cc1ccn(-c2nc(Nc3cccc(C(F)(F)F)c3)c3ccn(C)c3n2)n1

EC50 [3]: 5.73 µM
Compound: Cc1cc(C)n(-c2nc(Nc3cccc([N+](=O)[O-])c3)c3ccn(C)c3n2)n1

EC50 [3]: 4.31 µM
Compound: Cc1cc(C)n(-c2nc(Nc3ccccc3)c3ccn(C)c3n2)n1

EC50 [3]: 4.08 µM
Compound: Cc1cc(C)n(-c2nc(Nc3cccc(C#N)c3)c3ccn(C)c3n2)n1

EC50 [3]: 3.81 µM
Compound: Cc1cc(C)n(-c2nc(Nc3ccc(C(C)C)cc3)c3ccn(C)c3n2)n1

EC50 [3]: 3.65 µM
Compound: CCc1ccc(Nc2nc(-n3nc(C)cc3C)nc3ccn(C)c23)cc1

EC50 [3]: 3.5 µM
Compound: Cc1cc(C)n(-c2nc(Nc3ccc(Cl)cc3)c3ccn(C)c3n2)n1

EC50 [3]: 3.41 µM
Compound: Cc1cc(C)n(-c2nc(Nc3ccc(F)cc3)c3ccn(C)c3n2)n1

EC50 [3]: 3.1 µM
Compound: Cc1ccc(Nc2nc(-n3nc(C)cc3C)nc3c2ccn3C)cc1

EC50 [3]: 2.97 µM
Compound: Cc1cc(C)n(-c2nc(Nc3cccc(C(C)C)c3)c3c(ccn3C)n2)n1

EC50 [3]: 2.28 µM
Compound: Cc1cc(C)n(-c2nc(NC3CCCCC3)c3ccn(C)c3n2)n1

EC50 [3]: 1.94 µM
Compound: Cc1cc(C)n(-c2nc(Nc3ccc(Br)cc3)c3ccn(C)c3n2)n1

EC50 [3]: 1.79 µM
Compound: Cc1cc(C)n(-c2nc(Nc3ccc(F)c(Cl)c3)c3ccn(C)c3n2)n1

EC50 [3]: 1.73 µM
Compound: Cc1cc(C)n(-c2nc(Nc3cccc(Br)c3)c3c(ccn3C)n2)n1

EC50 [3]: 1.6 µM
Compound: Cc1cc(C)n(-c2nc(Nc3cccc(C(F)(F)F)c3)c3ccn(C)c3n2)n1

EC50 [3]: 1.2 µM
Compound: Cc1cc(C)n(-c2nc(Nc3ccc(Cl)c(C(F)(F)F)c3)c3ccn(C)c3n2)n1

Vd/F [5]: 92.9 L/kg | CLz/F [6]: 26.8 mL/min/kg | AUC(0-t) at 12 h [7]: 1360 ng·h/mL | CL/F ([8]; Sprague-Dawley, read-out: CLz/F (converted)): 813 mL/min/kg | MRT [9]: 1.5 h | AUC(0-t) at 12 h ([10]; Sprague-Dawley): 2500 ng·h/mL | MRT [11]: 3.22 h | Papp A→B at 24 h, 10 ug/ml [4]: 3.23 ×10⁻⁶ cm/s | AUC(0-inf) ([12]; Sprague-Dawley): 1370 ng·h/mL | EC50 [3]: 0.73 µM | Cmax [13]: 1620 ng/mL | Vz/F [14]: 4.791 L/kg | bioavailability ([15]; Sprague-Dawley): 4.03% | Cmax [16]: 662 ng/mL | half-life [17]: 1.97 h | AUC(0-inf) [23]: 2510 ng·h/mL | Tmax [18]: 2.67 h | half-life [19]: 1.25 h
Compound: Cc1cc(C)n(-c2nc(Nc3cccc(Br)c3)c3ccn(C)c3n2)n1
Activity (HUVEC): Non-Toxic

EC50 [3]: 0.5 µM
Compound: Cc1ccn(-c2nc(Nc3ccc(Cl)c(C(F)(F)F)c3)c3ccn(C)c3n2)n1

EC50 [3]: 0.48 µM
Compound: Cc1ccn(-c2nc(Nc3cccc(Br)c3)c3ccn(C)c3n2)n1
